For 17 molecules, Ki and melting point results are on record in patent US8877778B2, “Benzofurane compounds” (Hoffmann-La Roche Inc., priority 2010, dated 2014).

One series deals with human D2 receptor (Homo sapiens (Human), UniProt P14416). The series can be described thus: Radioligand binding ([3H]-spiperone) to cloned receptors expressed in HEK-293 EBNA cells. The settings on record: HEK293 EBNA cell membranes expressing human D2. As for the experimental part:
(§1) HEK293 EBNA cells were transiently transfected with expression plasmids encoding for the human D2 or D3 or for the human 5-HT2A receptor, respectively. The cells were harvested 48 h post-transfection, washed three times with cold PBS and stored at −80° C. prior to use. The pellet was suspended in cold 50 mM Tris-HCl buffer comprising 10 mM EDTA (pH 7.4) and was homogenized with a Polytron (Kinematica AG, Basel, Switzerland) for 20-30 sec at 12.000 rpm. After centrifugation at 48.000×g for 30 min at 4° C., the pellet was resuspended in cold 10 mM Tris-HCl buffer comprising 0.1 mM EDTA (pH 7.4), homogenized, and centrifuged as above. This pellet was further resuspended in a smaller volume of ice cold 10 mM Tris-HCl buffer comprising 0.1 mM EDTA (pH 7.4) and homogenized with a Polytron for 20-30 sec at 12.000 rpm. The protein content of this homogenate was determined with the Bio-Rad (Bradford) Protein Assay (Biorad Laboratories GmbH, München, Germany) according to the instructions of the manufacturer using gamma globulin as the standard. This homogenate was stored at −80° C. in aliquots and thawed immediately prior to use.
(§2) Aliquots of membrane preparations were thawed at RT, resupended in assay buffer (D2, D3: 50 mM Tris-HCl, 120 mM NaCl, 5 mM MgCl2, 1 mM EDTA, 5 mM KCl, 1.5 mM CaCl2, pH=7.4; 5-HT2A: 50 mM Tris-HCl, 10 mM MgCl2, 1 mM EGTA, pH=7.4), homogenized with a Polytron for 20-30 sec at 12.000 rpm and adjusted to a final concentration of approximately 7.5 μg protein/well (D2, D3) and 15 μg protein/well (5-HT2A), respectively.
(§3) The binding affinity (Ki) of the compounds was determined using radioligand binding. Membranes were incubated in a total volume of 200 μl with a fixed concentration of radioligand (final concentration approximately 0.7 nM [^3H]-spiperone for D2, 0.5 nM [^3H]-spiperone for D3, and 1.1 nM [^3H]-ketanserin for 5-HT2A) and ten concentrations of test compound in ranging between 10 μM-0.1 nM for 1 h at RT. At the end of the incubation, the reaction mixtures were filtered on to unifilter 96-well white microplates with bonded GF/C filters (Packard BioScience, Zürich, Switzerland; preincubated for 1 h in 0.1% polyethylenimine (PEI) in assay buffer) with a Filtermate 196 harvester (Packard BioScience) and washed 3 times with cold assay buffer. The nonspecific binding was determined with equally composed reaction mixtures in the presence of 10 μM unlabelled spiperone. Per well 45 μl of Microscint 40 (Perkin Elmer, Schwerzenbach, Switzerland) was added, plates for sealed, shaken for 20 min and counted for 3 min on a Topcount Microplate Scintillation Counter (Can berra Packard SA, Zürich, Switzerland) with quenching correction.
(§4) The CPM value for each duplicate of a concentration of competing compound was averaged (y1), then the % specific binding was calculated according to the equation (((y1−non-specific)/(total binding−non-specific))×100). Graphs were plotted with the % specific binding using XLfit, a curve fitting program that iteratively plots the data using Levenberg-Marquardt algorithm. The single site competition analysis equation used was y=A+((B−A)/(1+((x/C)D))), where y is the % specific binding, A is the minimum y, B is the maximum y, C is the IC50, x is the log 10 of the concentration of the competing compound and D is the slope of the curve (the Hill Coefficient). […] The affinity constant (Ki) was calculated using the Cheng-Prusoff equation Ki=(IC50/1+([L]/Kd), where [L] is the concentration of radioligand and Kd is the dissociation constant of the radioligand at the receptor as determined by the saturation isotherm.

The target in a further series is human D3 receptor (Homo sapiens (Human), UniProt P35462). The description is as above. Conditions: HEK293 EBNA cell membranes expressing human D3. As for the experimental part: as §1, §2, §3, §4
human D3 receptor, sequence (P35462 whole entry): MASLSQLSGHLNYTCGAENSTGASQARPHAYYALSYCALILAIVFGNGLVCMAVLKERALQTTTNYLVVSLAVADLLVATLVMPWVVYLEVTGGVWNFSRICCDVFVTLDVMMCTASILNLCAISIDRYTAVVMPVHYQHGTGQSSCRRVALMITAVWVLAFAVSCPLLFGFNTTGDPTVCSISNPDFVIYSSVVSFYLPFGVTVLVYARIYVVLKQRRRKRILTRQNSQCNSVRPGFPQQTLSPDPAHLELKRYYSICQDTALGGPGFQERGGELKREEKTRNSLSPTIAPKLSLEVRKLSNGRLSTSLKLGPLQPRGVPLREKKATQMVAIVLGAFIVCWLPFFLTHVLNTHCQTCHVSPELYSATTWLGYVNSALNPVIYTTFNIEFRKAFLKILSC
The target in the next series is human 5-HT2A receptor (Homo sapiens (Human), UniProt P28223). The series can be described thus: Radioligand binding ([3H]-ketanserin) to cloned receptors expressed in HEK-293 EBNA cells. The settings on record: HEK293 EBNA cell membranes expressing human 5-HT2A. The procedure:
as §1, §2, §3, §4

human D2 receptor, sequence (P14416 whole entry): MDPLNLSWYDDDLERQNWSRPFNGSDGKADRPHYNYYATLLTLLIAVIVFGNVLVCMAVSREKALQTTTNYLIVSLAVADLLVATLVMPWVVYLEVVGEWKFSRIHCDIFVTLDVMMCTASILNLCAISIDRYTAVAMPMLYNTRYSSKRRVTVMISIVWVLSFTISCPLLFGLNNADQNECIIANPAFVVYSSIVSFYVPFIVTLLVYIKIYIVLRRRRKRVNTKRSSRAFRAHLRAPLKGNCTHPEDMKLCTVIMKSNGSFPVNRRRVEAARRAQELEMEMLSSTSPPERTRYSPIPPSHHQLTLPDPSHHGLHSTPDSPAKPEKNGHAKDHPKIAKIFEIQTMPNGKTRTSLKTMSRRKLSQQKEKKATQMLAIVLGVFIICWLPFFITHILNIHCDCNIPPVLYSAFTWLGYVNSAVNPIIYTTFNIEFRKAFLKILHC
human 5-HT2A receptor, sequence (P28223 whole entry): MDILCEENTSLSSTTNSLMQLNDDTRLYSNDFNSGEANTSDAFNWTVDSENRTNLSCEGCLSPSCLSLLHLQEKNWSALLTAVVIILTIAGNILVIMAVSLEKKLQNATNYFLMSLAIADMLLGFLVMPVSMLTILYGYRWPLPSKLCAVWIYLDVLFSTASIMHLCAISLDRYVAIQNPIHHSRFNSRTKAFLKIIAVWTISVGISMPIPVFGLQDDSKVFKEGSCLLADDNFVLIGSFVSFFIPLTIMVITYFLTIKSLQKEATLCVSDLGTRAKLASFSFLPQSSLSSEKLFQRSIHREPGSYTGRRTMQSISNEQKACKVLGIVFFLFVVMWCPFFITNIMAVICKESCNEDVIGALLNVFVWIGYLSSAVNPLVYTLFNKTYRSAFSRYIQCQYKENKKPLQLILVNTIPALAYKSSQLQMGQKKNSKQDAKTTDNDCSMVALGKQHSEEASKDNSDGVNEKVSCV

By Ki is commonly meant a measure of affinity in units of concentration, obtained from inhibition or displacement. The term melting point denotes the temperature, or range, at which the solid turns liquid. Molecule `O=C(N[C@H]1CC[C@H](CCN2CCC(c3cccc4c3CCO4)CC2)CC1)C1(O)CC1` [Example 28, 1-Hydroxy-cyclopropanecarboxylic acid trans-(4-{2-[4-(2,3-dihydro-benzofuran-4-yl)-piperidin-1-yl]-ethyl}-cyclohexyl)-amide] yielded a melting point of 164 °C. Also, the inhibition constant (Ki) on human D2 receptor came out at 0.299 µM. Further, the Ki at human D3 receptor is 0.0084 µM. The Ki on human 5-HT2A receptor was determined as 0.0093 µM.
Regarding `O=C(N[C@H]1CC[C@H](CCN2CCC(c3cccc4c3CCO4)CC2)CC1)C1CC1` [Example 29, Cyclopropanecarboxylic acid trans-(4-{2-[4-(2,3-dihydro-benzofuran-4-yl)-piperidin-1-yl]-ethyl}-cyclohexyl)-amide], the melting point was 208 °C. In addition, the Ki on human D2 receptor amounted to 0.151 µM. Moreover, the Ki on human D3 receptor was 0.0089 µM. Moreover, on human 5-HT2A receptor, the Ki came to 0.0236 µM.
Take `O=C(CC1CC1)N[C@H]1CC[C@H](CCN2CCC(c3cccc4c3CCO4)CC2)CC1` [Example 30, trans-2-Cyclopropyl-N-(4-{2-[4-(2,3-dihydro-benzofuran-4-yl)-piperidin-1-yl]-ethyl}-cyclohexyl)-acetamide]: the melting point is 189 °C. The Ki on human D2 receptor amounted to 0.268 µM. Moreover, on human D3 receptor, the Ki amounted to 0.0029 µM. The Ki on human 5-HT2A receptor was found to be 0.0287 µM.
Taken in the same sequence, the figures for `O=C(N[C@H]1CC[C@H](CCN2CCC(c3cccc4c3CCO4)CC2)CC1)c1ccc(N2CCOCC2)cc1` [Example 33, trans-N-(4-{2-[4-(2,3-Dihydro-benzofuran-4-yl)-piperidin-1-yl]-ethyl}-cyclohexyl)-4-morpholin-4-yl-benzamide] were 247 °C, 0.128 µM, 0.0105 µM and 0.0176 µM.
Consider `O=C(N[C@H]1CC[C@H](CCN2CCC(c3cccc4c3CCO4)CC2)CC1)c1ccc(Cl)cc1` [Example 34, trans-4-Chloro-N-(4-{2-[4-(2,3-dihydro-benzofuran-4-yl)-piperidin-1-yl]-ethyl}-cyclohexyl)-benzamide], for which the melting point came out at 224 °C. Moreover, the Ki at human D2 receptor is 0.0719 µM. Further, the Ki at human D3 receptor worked out at 0.0049 µM. For the same molecule, the Ki on human 5-HT2A receptor is 0.0181 µM.
In turn, `O=C(N[C@H]1CC[C@H](CCN2CCC(c3cccc4c3CCO4)CC2)CC1)c1ccc(F)cc1` [Example 35, trans-N-(4-{2-[4-(2,3-Dihydro-benzofuran-4-yl)-piperidin-1-yl]-ethyl}-cyclohexyl)-4-fluoro-benzamide] showed a melting point of 213 °C. The Ki on human D2 receptor turned out to be 0.0737 µM. Further, the inhibitory constant (Ki) at human D3 receptor was 0.0049 µM. Also, the Ki on human 5-HT2A receptor stood at 0.0142 µM.
Consider `O=C(C[C@@H](O)C(F)(F)F)N[C@H]1CC[C@H](CCN2CCC(c3cccc4c3CCO4)CC2)CC1` [Example 36, trans-(R)—N-(4-{2-[4-(2,3-Dihydro-benzofuran-4-yl)-piperidin-1-yl]-ethyl}-cyclohexyl)-4,4,4-trifluoro-3-hydroxy-butyramide], for which the melting point was 189 °C. Further, on human D2 receptor, the inhibition constant (Ki) was found to be 0.239 µM. The Ki on human D3 receptor was determined as 0.0065 µM. The Ki at human 5-HT2A receptor came to 0.0534 µM.
Taken in the same sequence, the figures for `CC(C)(O)C(=O)N[C@H]1CC[C@H](CCN2CCC(c3cccc4c3CCO4)CC2)CC1` [Example 38, trans-N-(4-{2-[4-(2,3-Dihydro-benzofuran-4-yl)-piperidin-1-yl]-ethyl}-cyclohexyl)-2-hydroxy-2-methyl-propionamide] were 163 °C, 0.495 µM, 0.0349 µM and 0.008 µM.
`O=C(N[C@H]1CC[C@H](CCN2CCC(c3cccc4c3CCO4)CC2)CC1)c1ccnc2ccccc12` [Example 40, Quinoline-4-carboxylic acid trans-(4-{2-[4-(2,3-dihydro-benzofuran-4-yl)-piperidin-1-yl]-ethyl}-cyclohexyl)-amide] had a melting point of 211 °C. In addition, the Ki on human D2 receptor worked out at 0.563 µM. In addition, the Ki at human D3 receptor was found to be 0.0061 µM. Also, the Ki on human 5-HT2A receptor was determined as 0.0242 µM.
`Cc1cc(C(=O)N[C@H]2CC[C@H](CCN3CCC(c4cccc5c4CCO5)CC3)CC2)on1` [Example 41, 3-Methyl-isoxazole-5-carboxylic acid trans-(4-{2-[4-(2,3-dihydro-benzofuran-4-yl)-piperidin-1-yl]-ethyl}-cyclohexyl)-amide] gave a melting point of 215 °C. Besides, the Ki at human D2 receptor stood at 0.124 µM. Also, the Ki on human D3 receptor is 0.0108 µM. Besides, at human 5-HT2A receptor, the Ki came to 0.0364 µM.
With `Cc1ccc(C(=O)N[C@H]2CC[C@H](CCN3CCC(c4cccc5c4CCO5)CC3)CC2)cn1` [Example 42, trans-N-(4-{2-[4-(2,3-Dihydro-benzofuran-4-yl)-piperidin-1-yl]-ethyl}-cyclohexyl)-6-methyl-nicotinamide], the melting point is 202 °C. Also, the Ki at human D2 receptor worked out at 0.151 µM. For the same molecule, on human D3 receptor, the Ki is 0.0102 µM. Besides, the Ki on human 5-HT2A receptor was 0.0254 µM.
On to `O=C(N[C@H]1CC[C@H](CCN2CCC(c3cccc4c3CCO4)CC2)CC1)C(F)(F)F` [Example 43, trans-N-(4-{2-[4-(2,3-Dihydro-benzofuran-4-yl)-piperidin-1-yl]-ethyl}-cyclohexyl)-2,2,2-trifluoro-acetamide], for which the melting point came to 173 °C. In addition, at human D2 receptor, the Ki came to 0.289 µM. The Ki at human D3 receptor was found to be 0.0219 µM. The Ki at human 5-HT2A receptor was 0.0552 µM.
Regarding `CN1CCN(c2ccc(C(=O)N[C@H]3CC[C@H](CCN4CCC(c5cccc6c5CCO6)CC4)CC3)cc2)CC1` [Example 44, trans-N-(4-{2-[4-(2,3-Dihydro-benzofuran-4-yl)-piperidin-1-yl]-ethyl}-cyclohexyl)-4-(4-methyl-piperazin-1-yl)-benzamide], the melting point worked out at 241 °C. Moreover, the Ki on human D2 receptor is 0.147 µM. Also, at human D3 receptor, the Ki was found to be 0.006 µM. In addition, the Ki on human 5-HT2A receptor is 0.0084 µM.
On to `N#Cc1ccc(C(=O)N[C@H]2CC[C@H](CCN3CCC(c4cccc5c4CCO5)CC3)CC2)cc1` [Example 45, trans-4-Cyano-N-(4-{2-[4-(2,3-dihydro-benzofuran-4-yl)-piperidin-1-yl]-ethyl}-cyclohexyl)-benzamide], for which the melting point came to 230 °C. Also, the Ki on human D2 receptor was determined as 0.192 µM. In addition, the Ki at human D3 receptor is 0.0079 µM. In addition, the Ki on human 5-HT2A receptor was determined as 0.0222 µM.
`O=C(N[C@H]1CC[C@H](CCN2CCC(c3cccc4c3CCO4)CC2)CC1)c1ccc(N2CCOCC2)nc1` [Example 46, trans-N-(4-{2-[4-(2,3-Dihydro-benzofuran-4-yl)-piperidin-1-yl]-ethyl}-cyclohexyl)-6-morpholin-4-yl-nicotinamide] came in with a melting point of 228 °C. For the same molecule, the Ki at human D2 receptor came to 0.919 µM. At human D3 receptor, the Ki was determined as 0.0163 µM. Moreover, on human 5-HT2A receptor, the Ki was determined as 0.0276 µM.
As to `CS(=O)(=O)N[C@H]1CC[C@H](CCN2CCC(c3cccc4c3CCO4)CC2)CC1` [Example 47, trans-N-(4-{2-[4-(2,3-Dihydro-benzofuran-4-yl)-piperidin-1-yl]-ethyl}-cyclohexyl)-methanesulfonamide], the melting point was determined as 152 °C. For the same molecule, the Ki at human D2 receptor amounted to 0.328 µM. The inhibition constant (Ki) at human D3 receptor was found to be 0.0101 µM. Further, on human 5-HT2A receptor, the Ki was found to be 0.0352 µM.
On to `CCS(=O)(=O)N[C@H]1CC[C@H](CCN2CCC(c3cccc4c3CCO4)CC2)CC1` [Example 48, Ethanesulfonic acid trans-(4-{2-[4-(2,3-dihydro-benzofuran-4-yl)-piperidin-1-yl]-ethyl}-cyclohexyl)-amide], for which the melting point turned out to be 131 °C. On human D2 receptor, the Ki is 0.333 µM. The Ki at human D3 receptor worked out at 0.0112 µM. Also, the Ki at human 5-HT2A receptor amounted to 0.0348 µM.
